Measurements from US10092546B2, “Imidazole derivatives” (Hoffman-La Roche Inc., priority 2015, dated 2018).

Tests used:
[1] = target: T1, human EAAT3 (Homo sapiens, UniProt P43005); test: FLIPR Membrane Potential (FMP) assay, antagonist potency at human EAAT3; type: cell-based; conditions: HEK-293 cells stably expressing human EAAT3; L-glutamate as agonist at EC80; antagonist applied 15 min before; Kb by Cheng-Prusoff from IC50
T1 construct: expressed in transfected cells
T1 sequence (P43005 1-524): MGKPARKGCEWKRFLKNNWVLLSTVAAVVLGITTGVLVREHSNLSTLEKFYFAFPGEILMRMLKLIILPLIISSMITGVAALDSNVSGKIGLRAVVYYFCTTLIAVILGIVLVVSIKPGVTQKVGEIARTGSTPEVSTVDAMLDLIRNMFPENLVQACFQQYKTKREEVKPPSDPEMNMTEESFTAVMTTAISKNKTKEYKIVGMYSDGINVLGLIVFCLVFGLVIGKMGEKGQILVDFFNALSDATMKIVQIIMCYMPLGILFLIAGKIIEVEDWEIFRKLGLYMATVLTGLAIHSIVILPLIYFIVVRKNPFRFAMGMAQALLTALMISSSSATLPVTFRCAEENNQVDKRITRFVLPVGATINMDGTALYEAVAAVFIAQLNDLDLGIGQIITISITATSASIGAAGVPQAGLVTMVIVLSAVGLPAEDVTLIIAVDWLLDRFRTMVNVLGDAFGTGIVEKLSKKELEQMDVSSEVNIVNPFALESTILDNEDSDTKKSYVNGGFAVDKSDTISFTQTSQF
Method: The FLIPR Membrane Potential (FMP) Assay
HEK-293 cells stably expressing human EAAT3 were seeded at 55 000 cells/well in growth medium (DMEM glutamate free (Invitrogen 11960-044), 1% Pen Strep (10 ml/l GIBCO BRL No 15140-023), 10% FCS non dialysed heat inactivated, 5 mg/l puromycin) in poly-D-lysine treated 96-well black microtiter plates with clear-bottom. After 24 h, the growth medium was removed and 100 μl/well of Krebs buffer (140 mM NaCl, 4.7 mM KCl, 2.5 mM CaCl2, 1.2 mM MgCl2, 11 mM HEPES, 10 mM D-glucose, pH=7.4) added. The cells were then loaded by adding 100 μl/well FMP assay dye (FLIPR Membrane Potential assay reagent, Molecular Devices). The 96-well plates were then incubated at 37° C. for 1 h. The depolarization of the cells will cause more dye to enter in the cells, where it will bind to intracellular proteins and lipids and cause an increase in the fluorescence signal. Antagonist potency at human EAAT3 was determined by using L-glutamate as agonist at a concentration which gives 80% of the maximum response. The antagonists were applied 15 min before the application of the agonist L-glutamate. The assays were performed at room temperature and measurements done by using a Fluorometric Imaging Plate Reader (FLIPR, Molecular Devices) and filter #2. Responses were measured as peak increase in fluorescence minus basal (i.e. fluorescence without addition of L-glutamate). Kb was determined using the Cheng-Prusoff equation Kb=IC50/[1+(A/EC50)], where IC50 is the concentration of the antagonist producing 50% inhibition, A is the concentration of the agonist against which the IC50 is being determined (at EC80) and EC50 is the concentration of the agonist producing 50% […].

melting point [°C] | Kb [1] [nM] | Structure (SMILES)
212 | 370 | CC(C)(C)NC(=O)c1cc(-c2ccc(F)cc2)nc(-n2ccnc2CO)c1 [Example 14, N-tert-Butyl-2-(4-fluorophenyl)-6-[2-(hydroxymethyl)-imidazol-1-yl]-pyridine-4-carboxamide]
235 | 240 | COc1ccc(-c2cc(C(=O)NC(C)(C)C)cc(-n3ccnc3C(C)(C)C)n2)cc1 [Example 31, N-tert-Butyl-2-(2-tert-butyl-imidazol-1-yl)-6-(4-methoxy-phenyl)-pyridine-4-carboxamide]
226 | 670 | CC(C)(C)NC(=O)c1cc(-c2ccc(C3CC3)cc2)nc(-n2ccnc2C(C)(C)C)c1 [Example 28, N-tert-Butyl-2-(2-tert-butyl-imidazol-1-yl)-6-(4-cyclopropyl-phenyl)-pyridine-4-carboxamide]
225 | 260 | CC(C)(C)c1nccn1-c1cc(C(=O)NC(C)(C)C(F)(F)F)cc(-c2ccc(Cl)cc2)n1 [Example 25, 2-(2-tert-Butylimidazol-1-yl)-6-(4-chlorophenyl)-N-(1,1,1-trifluoro-2-methylpropan-2-yl)-pyridine-4-carboxamide]
199 | 110 | CC(C)c1nccn1-c1cc(C(=O)NC(C)(C)C)cc(-c2ccc(F)cc2)n1 [Example 2, N-tert-Butyl-2-(4-fluorophenyl)-6-(2-propan-2-yl-imidazol-1-yl)-pyridine-4-carboxamide]
232 | 110 | Cc1ccc(-c2cc(C(=O)NC(C)(C)C)cc(-n3ccnc3C(C)(C)C)n2)cc1 [Example 27, N-tert-Butyl-2-(2-tert-butyl-imidazol-1-yl)-6-(4-methylphenyl)-pyridine-4-carboxamide]
244 | 370 | CC(C)(C)NC(=O)c1cc(-c2ccc(F)c(F)c2)nc(-n2ccnc2C(C)(C)C)c1 [Example 26, N-tert-Butyl-2-(2-tert-butyl-imidazol-1-yl)-6-(3,4-difluorophenyl)-pyridine-4-carboxamide]
245 | 290 | CC(C)(C)NC(=O)c1cc(-c2ccc(C#N)cc2)nc(-n2ccnc2C(C)(C)C)c1 [Example 32, N-tert-Butyl-2-(2-tert-butyl-imidazol-1-yl)-6-(4-cyano-phenyl)-pyridine-4-carboxamide]
– | 360 | CC(C)c1nccn1-c1cc(C(=O)NC(C)(C)C#N)cc(-c2ccc(Cl)cc2)n1 [Example 40, 2-(4-Chlorophenyl)-N-(2-cyanopropan-2-yl)-6-(2-propan-2-yl-imidazol-1-yl)-pyridine-4-carboxamide]
– | 140 | CC(C)c1nccn1-c1cc(C(=O)NC(C)(C)C)cc(-c2ccc(Cl)cc2)n1 [Example 1, N-tert-Butyl-2-(4-chlorophenyl)-6-(2-propan-2-yl-imidazol-1-yl)-pyridine-4-carboxamide]
